Assay results taken from patent US20250171431A1, “HETEROCYCLIC INHIBITORS OF IGF-1R FOR TREATMENT OF DISEASE” (HORIZON THERAPEUTICS IRELAND DAC, priority 2023, published 2025).

target: IGF-1R (Homo sapiens (Human), UniProt P08069); assay: Example B-1: IGF-1R Assay (PC3 cells, IGF1 stimulation, AlphaLISA); format: cell-based; conditions: 200 ng/mL IGF1 stimulation, read-out: Biological Activity against IGF-1R IC50
Procedure, shortened: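 PC3 cells were serum-starved 2 h, treated with serially diluted compounds for 2 h, then stimulated with IGF1 (200 ng/mL final) for 30 min. Lysates were read by AlphaLISA; % inhibition was calculated relative to vehicle and EC80 controls, with IC50 values binned into ranges.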

IGF-1R, sequence (P08069 31-1367): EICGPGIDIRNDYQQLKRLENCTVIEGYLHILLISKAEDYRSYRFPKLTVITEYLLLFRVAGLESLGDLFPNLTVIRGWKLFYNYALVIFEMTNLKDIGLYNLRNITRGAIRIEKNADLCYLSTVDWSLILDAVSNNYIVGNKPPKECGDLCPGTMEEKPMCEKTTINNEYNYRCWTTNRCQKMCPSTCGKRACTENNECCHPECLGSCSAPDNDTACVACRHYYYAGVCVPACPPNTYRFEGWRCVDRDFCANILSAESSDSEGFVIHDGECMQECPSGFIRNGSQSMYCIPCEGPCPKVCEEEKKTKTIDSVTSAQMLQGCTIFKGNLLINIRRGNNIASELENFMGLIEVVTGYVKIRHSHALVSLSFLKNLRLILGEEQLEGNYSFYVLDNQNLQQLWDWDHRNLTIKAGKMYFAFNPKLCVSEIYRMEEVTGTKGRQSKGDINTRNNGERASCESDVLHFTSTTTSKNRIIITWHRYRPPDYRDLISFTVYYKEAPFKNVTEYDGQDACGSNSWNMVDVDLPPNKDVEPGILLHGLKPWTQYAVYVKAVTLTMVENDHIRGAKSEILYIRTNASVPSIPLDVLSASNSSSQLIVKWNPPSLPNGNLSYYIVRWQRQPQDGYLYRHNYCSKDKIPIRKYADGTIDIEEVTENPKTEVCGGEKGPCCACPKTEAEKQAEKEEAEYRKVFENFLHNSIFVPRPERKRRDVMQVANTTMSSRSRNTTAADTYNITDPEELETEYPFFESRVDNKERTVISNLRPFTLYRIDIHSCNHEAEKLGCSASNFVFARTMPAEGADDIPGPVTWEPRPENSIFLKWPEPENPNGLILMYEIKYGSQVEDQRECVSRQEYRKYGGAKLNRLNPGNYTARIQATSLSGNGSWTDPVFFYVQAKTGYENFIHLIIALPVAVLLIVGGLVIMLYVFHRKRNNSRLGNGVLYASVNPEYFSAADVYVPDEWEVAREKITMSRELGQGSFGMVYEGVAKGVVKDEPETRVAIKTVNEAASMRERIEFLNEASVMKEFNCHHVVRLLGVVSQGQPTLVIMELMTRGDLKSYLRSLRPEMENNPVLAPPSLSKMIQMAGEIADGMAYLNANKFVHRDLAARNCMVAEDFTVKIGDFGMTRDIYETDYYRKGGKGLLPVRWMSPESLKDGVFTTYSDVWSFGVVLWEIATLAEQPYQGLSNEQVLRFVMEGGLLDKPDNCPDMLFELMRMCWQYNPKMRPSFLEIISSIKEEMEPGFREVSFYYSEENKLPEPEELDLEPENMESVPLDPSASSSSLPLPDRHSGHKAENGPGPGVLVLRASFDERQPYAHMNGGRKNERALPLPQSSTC

| SMILES | IC50 [nM] |
| --- | --- |
| COc1cc(Nc2nccc(Nc3cnc4[nH]c(C)cc4c3)n2)ccc1O[C@H]1C[C@@H](N(C)C)C1 [Compound 283, 2-{3-methoxy-4-[(1s,3s)-3-(dimethylamino)cyclobutoxy]phenylamino}-4-(2-methyl-1H-1,7-diazainden-5-ylamino)pyrimidine] | ≤ 500 |
| COc1cc(Nc2nccc(Nc3cccnc3C(N)=O)n2)ccc1O[C@H]1C[C@@H](N(C)C)C1 [Compound 284, 3-(2-{3-methoxy-4-[(1s,3s)-3-(dimethylamino)cyclobutoxy]phenylamino}-4-pyrimidinylamino)-2-pyridinecarboxamide] | ≤ 500 |
| COc1cc(Nc2nccc(Nc3cnc4ccc(Cl)nc4c3)n2)ccc1O[C@H]1C[C@H](N(C)C)C1 [Compound 285, 4-(6-chloro-1,5-diaza-3-naphthylamino)-2-{3-methoxy-4-[(1r,3r)-3-(dimethylamino)cyclobutoxy]phenylamino}pyrimidine] | ≤ 500 |
| COc1cc(Nc2nccc(Nc3cnc4ccc(Cl)cc4c3)n2)ccc1O[C@H]1CC[C@@H](N(C)C)CC1 [Compound 286, 4-(6-chloro-3-quinolylamino)-2-{3-methoxy-4-[(1s,4s)-4-(dimethylamino)cyclohexyloxy]phenylamino}pyrimidine] | ≤ 500 |
| COc1cc(Nc2nccc(Nc3cnc4cc(F)c(F)cc4c3)n2)cnc1O[C@H]1C[C@@H](N(C)C)C1 [Compound 289, 4-(6,7-difluoro-3-quinolylamino)-2-{5-methoxy-6-[(1s,3s)-3-(dimethylamino)cyclobutoxy]-3-pyridylamino}pyrimidine] | 500 to 2000 |
| COc1cc(Nc2nccc(Nc3cnc4c(F)cc(F)cc4c3)n2)cnc1O[C@H]1C[C@@H](N(C)C)C1 [Compound 290, 4-(6,8-difluoro-3-quinolylamino)-2-{5-methoxy-6-[(1s,3s)-3-(dimethylamino)cyclobutoxy]-3-pyridylamino}pyrimidine] | ≤ 500 |
| COc1cc(Nc2nccc(Nc3cnc4cc(Br)cnc4c3)n2)ccc1OC1CN(C)C1 [Compound 292, 4-(7-bromo-1,5-diaza-3-naphthylamino)-2-[3-methoxy-4-(1-methyl-3-azetidinyloxy)phenylamino] pyrimidine] | 2000 to 10000 |
| COc1cc(Nc2nccc(Nc3cnc4ccc(Cl)cc4c3)n2)ccc1OC1CN(C)C1 [Compound 293, 4-(6-chloro-3-quinolylamino)-2-[3-methoxy-4-(1-methyl-3-azetidinyloxy)phenylamino] pyrimidine] | > 10000 |
| CN1CC(Oc2ccc(Nc3nccc(Nc4cnc5ccc(Cl)cc5c4)n3)cc2)C1 [Compound 294, 4-(6-chloro-3-quinolylamino)-2-[p-(1-methyl-3-azetidinyloxy)phenylamino] pyrimidine] | 2000 to 10000 |
| CN1CC(Oc2ccc(Nc3nccc(Nc4cnc5ccccc5c4)n3)cc2)C1 [Compound 295, 2-[p-(1-methyl-3-azetidinyloxy)phenylamino]-4-(3-quinolylamino)pyrimidine] | 2000 to 10000 |
| COc1cc(Nc2nccc(Nc3cc4ccccc4nc3C(=O)O)n2)ccc1O[C@H]1C[C@@H](N(C)C)C1 [Compound 296, 3-(2-{3-methoxy-4-[(1s,3s)-3-(dimethylamino)cyclobutoxy]phenylamino}-4-pyrimidinylamino)-2-quinolinecarboxylic acid] | > 10000 |
| COc1cc(Nc2nccc(Nc3cnc4c(F)c(F)ccc4c3)n2)ccc1O[C@H]1C[C@@H](N(C)C)C1 [Compound 298, 4-(7,8-difluoro-3-quinolylamino)-2-{3-methoxy-4-[(1s,3s)-3-(dimethylamino)cyclobutoxy]phenylamino}pyrimidine] | ≤ 500 |
| COc1cc(Nc2nccc(Nc3cnc4cc[nH]c4c3)n2)ccc1O[C@H]1C[C@@H](N(C)C)C1 [Compound 299, 4-(1H-1,4-diazainden-6-ylamino)-2-{3-methoxy-4-[(1s,3s)-3-(dimethylamino)cyclobutoxy]phenylamino}pyrimidine] | 500 to 2000 |
| COc1cc(Nc2nccc(Nc3cnc4[nH]ncc4c3)n2)ccc1O[C@H]1C[C@@H](N(C)C)C1 [Compound 300, 2-{3-methoxy-4-[(1s,3s)-3-(dimethylamino)cyclobutoxy]phenylamino}-4-(1H-1,2,7-triazainden-5-ylamino)pyrimidine] | 500 to 2000 |
| COc1cc(Nc2nccc(Nc3cnc4[nH]ccc4c3)n2)ccc1O[C@H]1C[C@@H](N(C)C)C1 [Compound 301, 4-(1H-1,7-diazainden-5-ylamino)-2-{3-methoxy-4-[(1s,3s)-3-(dimethylamino)cyclobutoxy]phenylamino}pyrimidine] | ≤ 500 |
| C#Cc1ccc2ncc(Nc3ccnc(Nc4ccc(O[C@H]5C[C@@H](N(C)C)C5)c(OC)c4)n3)cc2c1 [Compound 302, 4-(6-ethynyl-3-quinolylamino)-2-{3-methoxy-4-[(1s,3s)-3-(dimethylamino)cyclobutoxy]phenylamino}pyrimidine] | ≤ 500 |
| COc1cc(Nc2nccc(Nc3cnc4c(c3)CC3(CC4)OCCO3)n2)ccc1OCCCN1CCCCC1 [Compound 303, 4-(7′,8′-dihydro-5′H-spiro[1,3-dioxolane-2,6′-quinolin]-3′-ylamino)-2-[3-methoxy-4-(3-piperidinopropoxy)phenylamino] pyrimidine] | ≤ 500 |
| COc1cc(Nc2nccc(Nc3cnc4c(=O)n(C)ncc4c3)n2)ccc1O[C@H]1C[C@@H](N(C)C)C1 [Compound 304, 3-(2-{3-methoxy-4-[(1s,3s)-3-(dimethylamino)cyclobutoxy]phenylamino}-4-pyrimidinylamino)-7-methyl-1,6,7-triaza-8(7H)-naphthalenone] | > 10000 |
| COc1cc(Nc2nccc(Nc3ncc4c(Cl)cccc4n3)n2)ccc1O[C@H]1C[C@@H](N(C)C)C1 [Compound 306, 4-(5-chloro-2-quinazolinylamino)-2-{3-methoxy-4-[(1s,3s)-3-(dimethylamino)cyclobutoxy]phenylamino}pyrimidine] | > 10000 |
| COc1cc(Nc2nccc(Nc3ncc4ccc(Br)cc4n3)n2)ccc1O[C@H]1C[C@@H](N(C)C)C1 [Compound 307, 4-(7-bromo-2-quinazolinylamino)-2-{3-methoxy-4-[(1s,3s)-3-(dimethylamino)cyclobutoxy]phenylamino}pyrimidine] | 2000 to 10000 |
| O=C1CN([C@H]2CC[C@@H](Oc3ccc(Nc4nccc(Nc5cnc6ccc(Cl)cc6c5)n4)cc3)CC2)CCN1 [Compound 308] | ≤ 500 |
| CN(C)[C@H]1CC[C@@H](Oc2ccc(Nc3nccc(Nc4cnc5ccc(Cl)cc5c4)n3)cc2)CC1 [Compound 310, 4-(6-chloro-3-quinolylamino)-2-{p-[(1s,4s)-4-(dimethylamino)cyclohexyloxy]phenylamino}pyrimidine] | ≤ 500 |
| Clc1ccc2ncc(Nc3ccnc(Nc4ccc(O[C@H]5CC[C@@H](N6CCOCC6)CC5)cc4)n3)cc2c1 [Compound 311, 4-(6-chloro-3-quinolylamino)-2-{p-[(1s,4s)-4-morpholinocyclohexyloxy]phenylamino}pyrimidine] | ≤ 500 |
| COc1cc(Nc2nccc(Nc3cnc4c(OC)cccc4c3)n2)ccc1O[C@H]1C[C@@H](N(C)C)C1 [Compound 312, 4-(8-methoxy-3-quinolylamino)-2-{3-methoxy-4-[(1s,3s)-3-(dimethylamino)cyclobutoxy]phenylamino}pyrimidine] | ≤ 500 |
